Target: T1, PDE4D2 (Homo sapiens, UniProt Q08499)
T1 construct: human PDE4D2 (catalytic domain, residues 86 –413); made in house; host or cells: E. coli BL21 (Codonplus)
Assay: PDE4D2 enzymatic inhibition assay (3H-cAMP substrate)
Type: biochemical
Conditions: human PDE4D2 catalytic domain, 25 °C, 15 min, read-out: IC50 against PDE4D2
From the text: The protocols for expression, purification, and enzymatic assays of PDE4D2 were similar to those we described previously. More details about the experimental procedures are provided in Supplementary S3.
S3. Experimental section Extraction and isolation and PDE4D assay
S3.1. Extraction and isolation […]
S3.2. Expression and purification of PDE4D2 prot ein
subcloned into the expression vector pET15b. All these resultant plasmids were transformed into E.
coli strain BL21 (Codonplus) for over expression. The E. coli cells carrying these plasmids were
grown in LB medium at 37 /g113C to OD600 = 0.7, and then 0.1 mM isopropyl
/g69-D-thiogalactop yranoside was added for further growth at 16 /g113C for 20–40 h. The recombinant
protein was purified by Ni-NTA column (Qiagen).
The enz ymatic activities of PDE4D cat al ytic domain and the inhibition of PDE4D by extracted
reactions were occured in mixture containing 50 mM Tris/HCl (pH 7.5), 10 mM MgCl2, 0.5 mM
DTT at room temperature (25 /g113C) for 15 min. The reactions were terminated by addition of 0.2 M
Zn S O 4 and Ba(OH)2. The reaction product 3H-AMP was precipitated out, while unreacted
3H-cAMP remained in the supernatant. The mechanism was illustrated as shown below (Scheme
S3.2). Radioactivity in the supernatant was measured in 2.5 mL Ultima Gold liquid scintillation
repeated at least three times. The IC 50 values were calculated by nonlinear regression. As a […]

T1 sequence (Q08499 388-715): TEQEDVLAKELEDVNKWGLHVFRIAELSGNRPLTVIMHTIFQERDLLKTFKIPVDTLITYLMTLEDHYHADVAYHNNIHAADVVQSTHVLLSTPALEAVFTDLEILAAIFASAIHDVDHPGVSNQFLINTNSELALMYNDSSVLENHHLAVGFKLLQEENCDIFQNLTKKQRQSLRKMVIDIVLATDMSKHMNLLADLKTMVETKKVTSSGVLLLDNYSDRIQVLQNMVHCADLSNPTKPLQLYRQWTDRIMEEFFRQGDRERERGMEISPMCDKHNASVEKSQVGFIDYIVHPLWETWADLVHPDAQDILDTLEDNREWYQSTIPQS

| Structure (SMILES) | IC50 [nM] |
| --- | --- |
| C=C1CCC2C(c3ccccc3)c3c(O)c(C=O)c(O)c(C=O)c3OC2(C)CCC2C1CC2(C)C (stereo not shown) [Compound 19, guajadial] | 1620 ± 80 |
| CC1=CCCC2(C)Oc3c(C=O)c(O)c(C=O)c(O)c3C(c3ccccc3)C2C2C(CC1)C2(C)C (stereo not shown) [Compound 12, Guajavadial C] | 4330 ± 210 |
| CC(C)C12CC3C(c4ccccc4)c4c(O)c(C=O)c(O)c(C=O)c4OC3(C)C1C2 (stereo not shown) [Compound 25, guajavadial A] | 2010 ± 70 |
| CC1CCC2C(C3C4(C)CCC13Oc1c(C=O)c(O)c(C=O)c(O)c1C4c1ccccc1)C2(C)C (stereo not shown) [Compound 16, psiguadial A] | 7260 ± 410 |
| C=C1CCC2C(c3ccccc3)c3c(O)c(C=O)c(O)c(C=O)c3OC2(C)CCC2C1CC2(C)C (stereo not shown) [Compound 7, Psiguajadial G] | 1340 ± 330 |
| CC(C)C1CCC(C)C23CC4C(c5ccccc5)c5c(O)c(C=O)c(O)c(C=O)c5OC4(C)C2C13 (stereo not shown) [Compound 2, Psiguajadial B] | 5030 ± 330 |
| CC(C)C1CCC(C)C2CC3C(c4ccccc4)c4c(O)c(C=O)c(O)c(C=O)c4OC3(C)C=C12 (stereo not shown) [Compound 23, Guajadial E] | 2730 ± 150 |
| CC1=CCCC2(C)C(c3ccccc3)c3c(O)c(C=O)c(O)c(C=O)c3OC2C2C(CC1)C2(C)C (stereo not shown) [Compound 13, psiguadial D] | 3420 ± 210 |
| CC1=C2C3CC(C)(C(c4ccccc4)c4c(O)c(C=O)c(O)c(C=O)c4O3)C2C2C(CC1)C2(C)C (stereo not shown) [Compound 3, Psiguajadial C] | 4500 ± 280 |
| C=C1CCC2C(c3ccccc3)c3c(O)c(C=O)c(O)c(C=O)c3OC2(C)CCC2C1CC2(C)C (stereo not shown) [Compound 20, psiguajadial L] | 1370 ± 70 |
| CC(C)C1CCC(C)C2CC3C(c4ccccc4)c4c(O)c(C=O)c(O)c(C=O)c4OC3(C)C=C12 (stereo not shown) [Compound 24, Guajadial F] | 2670 ± 170 |
| CC(C)C1CCC(C)C23CCC4(CC(c5ccccc5)c5c(O)c(C=O)c(O)c(C=O)c5O4)C2C13 (stereo not shown) [Compound 1, Psiguajadial A] | 3110 ± 100 |
| CC1(C)CC2C1CCC13CC2(C)CCC1C(c1ccccc1)c1c(O)c(C=O)c(O)c(C=O)c1O3 (stereo not shown) [Compound 6, Psiguajadial F] | 2630 ± 130 |
| CC1=CCCC2(C)C(c3ccccc3)c3c(O)c(C=O)c(O)c(C=O)c3OC2C2C(CC1)C2(C)C (stereo not shown) [Compound 5, Psiguajadial E] | 3250 ± 200 |
| CC(C)C1CCC(C)C2CCC3(C=C12)CC(c1ccccc1)c1c(O)c(C=O)c(O)c(C=O)c1O3 (stereo not shown) [Compound 9, Psiguajadial I] | 2510 ± 170 |
| CC1=CCC(C)(C)C=CCC2(C)Oc3c(C=O)c(O)c(C=O)c(O)c3C(c3ccccc3)C2CC1 (single isomer, unassigned; (+)) [Compound 15, (+)-guajadial B] | > 50000 |
| CC(C)C12CCC3(CC(c4ccccc4)c4c(O)c(C=O)c(O)c(C=O)c4O3)C1C2 (stereo not shown) [Compound 11, Psiguajadial K] | 3680 ± 270 |
| CC(C)C1CCC(C)C2CC3C(c4ccccc4)c4c(O)c(C=O)c(O)c(C=O)c4OC3(C)C=C12 (stereo not shown) [Compound 10, Psiguajadial J] | 2530 ± 330 |
| CC1(C)C2CC3C(c4ccccc4)c4c(O)c(C=O)c(O)c(C=O)c4OC3(C)C1C2 (stereo not shown) [Compound 27, guadial B] | > 50000 |
| C=C1CCC2C(c3ccccc3)c3c(O)c(C=O)c(O)c(C=O)c3OC2(C)CCC2C1CC2(C)C (stereo not shown) [Compound 18, psidial A] | 1600 ± 90 |
| CC(C)C12CCC3(CC(c4ccccc4)c4c(O)c(C=O)c(O)c(C=O)c4O3)C1C2 (stereo not shown) [Compound 26, guadial A] | 2700 ± 150 |
| C=C1CCC2Cc3c(O)c(C=O)c(O)c(C(=O)c4ccccc4)c3OC2(C)CCC2C1CC2(C)C (stereo not shown) [Compound 4, Psiguajadial D] | 4140 ± 260 |
| C=C1CCC2Cc3c(O)c(C(=O)c4ccccc4)c(O)c(C=O)c3OC2(C)CCC2C1CC2(C)C (stereo not shown) [Compound 17, guapsidial A] | 5610 ± 510 |
| CC(C)C1CCC(C)C2CCC3(C=C12)CC(c1ccccc1)c1c(O)c(C=O)c(O)c(C=O)c1O3 (stereo not shown) [Compound 21, Guajadial C] | 2280 ± 110 |
| CC1(C)C2CCC3(CC(c4ccccc4)c4c(O)c(C=O)c(O)c(C=O)c4O3)C1C2 (stereo not shown) [Compound 28, guadial C] | 17100 ± 960 |
| CC(C)C1CCC(C)C2CCC3(C=C12)CC(c1ccccc1)c1c(O)c(C=O)c(O)c(C=O)c1O3 (stereo not shown) [Compound 22, Guajadial D] | 1930 ± 110 |
| CC(C)C1CCC(C)C2CCC3(C=C12)CC(c1ccccc1)c1c(O)c(C=O)c(O)c(C=O)c1O3 (stereo not shown) [Compound 8, Psiguajadial H] | 1810 ± 90 |
| CC1=CCC(C)(C)C=CCC2(C)Oc3c(C=O)c(O)c(C=O)c(O)c3C(c3ccccc3)C2CC1 (single isomer, unassigned; (-)) [Compound 14, (−)-guajadial B] | > 50000 |

From PMC5430738, “Psiguajadials A–K: Unusual Psidium Meroterpenoids as Phosphodiesterase-4 Inhibitors from the Leaves of Psidium guajava” (Scientific Reports, 2017)
